Experimental data as given in patent publication US11427553B2, “Dihydrooxadiazinones” (Bayer Aktiengesellschaft, priority 2017, dated 2022).

Experiments:
HeLa cells = assay: Assay 1 cell proliferation measurement (CTG, 72 h), HeLa; format: cell-based, human; details: Homo sapiens, HeLa; Assay 1, 72 h, Cell Titer Glo; read-out: HeLa IC50 [nM] (Cervical cancer)
Procedure, shortened: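 CellTiter-Glo luminescence was read at treatment start (0 h plate) and after 72 h compound exposure at 37 °C. Doses were 2.5-fold steps, ten concentrations, top 100 nM final, 0.3% DMSO. Growth inhibition was scaled between 0 h and vehicle values, and IC50 was obtained by 4-parameter fitting.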

NCIH2172 cells = assay: Assay 2 cell proliferation measurement, H2172; format: cell-based; details: Homo sapiens, NCI-H2172, Lung non small cell carcinoma, read-out: Anti-proliferation IC50 [nM] H2172
Description: Cell Proliferation Measurement
The antiproliferative activity of the compounds of the general formula (I) was examined in vitro in human cancer cells. For this purpose, 500 cells, including HeLa cells, A2058 cells, DU145 cells, HMCB cells, IGR37 cells, NCIH1734 cells, OSRC2 cells, or 750 cells, including CAL51 cells, COL0741 cells, DBTRG05MG cells, DKMG cells, G292CLONEA141B1 cells, GB1 cells, HEL cells, HEL9217 cells, JHUEM1 cells, L3.3 cells, LI7 cells, TE4 cells, or 1000 cells, including 8505C cells, HUT78 cells, NCIH1563 cells, NCIH2122 cells, NCIH2172 cells, RVH421 cells, SKMEL3 cells, or 1500 cells, including C32 cells, HS578T cells, JHOM1 cells, NCIH196 cells, OVKATE cells, were plated in 384-well plates with appropriate growth medium and incubated at 37° C. overnight. After 24 h, the cells on the test plate were treated with the compounds of the general formula (I) as and incubated at 37° C. for 72 h. The compounds were added to the cells by means of an HP D300 digital dispenser in a 10 (or more)-step dilution series. As control, the cells were treated with vehicle (DMSO at 0.3% final concentration). After 72 h, the cells were treated with 20 μl/well of 50% CTG solution in PBS (Promega Cell Titer Glo (catalogue #G755B and G756B)) and incubated at room temperature for 10 min, and luminescence was measured by means of a VICTOR V (Perkin Elmer), in order to determine cell viability at the end of treatment. The percentage effect on cell growth and the IC50 derived therefrom were determined for each test substance using the values from untreated wells (=percent viability). The IC50 values were calculated using a 4-parameter fit.

[1] = Assay 6 in vitro metabolic stability in cryopreserved human hepatocytes (CL, Fmax); format: in vitro ADME; details: 1 μM test compound; for Clblood: hepatic in vivo blood clearance calculated (well-stirred) from half-life in cryopreserved human hepatocytes; for Fmax: maximal oral bioavailability calculated from half-life in cryopreserved human hepatocytes
Procedure, shortened: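 Test compound at 1 μM incubated with cryopreserved human hepatocytes (1.0×10^6 viable cells/ml, WME with 5% FCS) under shaking, with samples taken from 2 to 90 min, methanol-quenched and analysed by LC-MS/MS. Half-life gave intrinsic clearance, scaled with liver blood flow and hepatocellularity to CL and Fmax.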

| IC50 (HeLa cells) [nM] | IC50 (NCIH2172 cells) [nM] | Clblood [1] [mL/min/kg] | Fmax [1] [%] | Compound |
| --- | --- | --- | --- | --- |
| 1 | 38 | 16.3 | 26 | C[C@@H]1OC(=O)NN=C1c1ccc(-c2ccc(F)cc2)c(C(F)(F)F)c1 [Example 135, (6S)-5-[4′-Fluoro-2-(trifluoromethyl)biphenyl-4-yl]-6-methyl-3,6-dihydro-2H-1,3,4-oxadiazin-2-one] |
| 2 | 101 | 8.5 | 61 | C[C@@H]1OC(=O)NN=C1c1ccc(-n2ccc(C(F)(F)F)n2)c(C(F)(F)F)c1 [Example 265, (6S)-6-Methyl-5-{3-(trifluoromethyl)-4-[3-(trifluoromethyl)-1H-pyrazol-1-yl]phenyl}-3,6-dihydro-2H-1,3,4-oxadiazin-2-one] |

Continued, compound first:

| Compound | IC50 (HeLa cells) [nM] | IC50 (NCIH2172 cells) [nM] | Clblood [1] [mL/min/kg] | Fmax [1] [%] |
| --- | --- | --- | --- | --- |
| O=C1NN=C(c2ccc(-c3ccc(Cl)cc3)c(C(F)(F)F)c2)CO1 [Example 31, 5-[4′-Chloro-2-(trifluoromethyl)biphenyl-4-yl]-3,6-dihydro-2H-1,3,4-oxadiazin-2-one] | 4 | – | 10.7 | 52 |
| O=C1NN=C(c2ccc(-c3cnn(C(F)F)c3)c(C(F)(F)F)c2)CO1 [Example 146, 5-{4-[1-(Difluoromethyl)-1H-pyrazol-4-yl]-3-(trifluoromethyl)phenyl}-3,6-dihydro-2H-1,3,4-oxadiazin-2-one] | 1 | 37 | 8.83 | 60 |
| O=C1NN=C(c2ccc(-c3ccc(F)cc3)c(C(F)(F)F)c2)CO1 [Example 3, 5-[4′-Fluoro-2-(trifluoromethyl)biphenyl-4-yl]-3,6-dihydro-2H-1,3,4-oxadiazin-2-one] | 3 | – | 6.5 | 70 |
